Values quoted from earlier work in patent USRE41148E1, “Oral pulsed dose drug delivery system” (Shire Laboratories, Inc., priority 1998, dated 2010).

Experiments:
[1] = pulsatile capsule, release after nominal 5-hr period, majority of subjects
[2] = wax-surfactant coating level 60%

Row | drug observed in the blood [1] | lag time of drug release [2] | time required for complete release after the lag time [2] | Structure (SMILES)
1 | no measurable amounts | – | – | C[C@H](CS)C(=O)N1CCC[C@H]1C(=O)O [captopril]
2 | – | two-hour | three hours | Cn1c(=O)c2[nH]cnc2n(C)c1=O [theophylline]
